Experimental findings from US8426396B2, “Treatment for achondroplasia” (Shriners Hospitals for Children, priority 2008, dated 2013) are described below.

The subject of this assay is TDII FGFR3. In words: Proteasome inhibition in cells expressing TDII FGFR3 (immunoblot). Type of assay: cell-based, mouse. As to conditions: 17-AAG-induced decrease, FIG. 11. The text has this: The two FGFR3 bands reflect glycosylation differences.

Where a SMILES comes first, the peptide text is derived from it. The star is where a group is joined. Cbz = O=C(OCc1ccccc1)*

`CC(C)C[C@@H](C=O)NC(=O)[C@H](CC(C)C)NC(=O)[C@H](CC(C)C)NC(=O)OCc1ccccc1` [MG132] (Cbz-Leu-Leu-Leu-aldehyde): the “TDII FGFR3 degradation” value is “decreased TDII FGFR3 degradation”.
